According to article PMC7127602 (Bioorganic & Medicinal Chemistry, 2007):

Molecular target: SARS-CoV M^pro (Severe acute respiratory syndrome coronavirus, UniProt P0C6X7)
Format: biochemical

Row | SMILES | Increase in IC50 relative to compound 2
1 | O=C(Oc1cncc(Cl)c1)c1ccc(-c2ccccc2[N+](=O)[O-])o1 [compound 4] | threefold
2 | O=C(Oc1cncc(Cl)c1)c1ccc(-c2cccc([N+](=O)[O-])c2)o1 [compound 5] | eightfold
